34 compounds from US6989389B2, “Aryl ether substituted imidazoquinolines” (3M Innovative Properties Co., priority 2000, dated 2006) can be followed below.

The structures appear in SMILES notation. Where a name gives a salt, the structure may show the parent alone. Read-outs that look alike come from different tables or passages of the source.

This assay has as its system Peripheral blood mononuclear cells (PBMC). Briefly: Cytokine Induction in Human Cells (in vitro human blood cell system, IFN and TNF secreted into culture media). The format is cell-based. Details: key to Lowest Effective Concentration (μM) Tumor Necrosis Factor / Lowest Effective Concentration (μM) Interferon: *: no induction was seen at any of the tested concentrations. Particulars: 18 to 24 hours, tested 30-0.014 μM. The text has this: An in vitro human blood cell system is used to assess cytokine induction. Activity is based on the measurement of interferon and tumor necrosis factor (α) (IFN and TNF, respectively) secreted into culture media as described by Testerman et. al. In “Cytokine Induction by the Immunomodulators Imiquimod and S-27609”, Journal of Leukocyte Biology, 58, 365-372 (September, 1995).
Whole blood from healthy human donors is collected by venipuncture into EDTA vacutainer tubes. Peripheral blood mononuclear cells (PBMC) are separated from whole blood by density gradient centrifugation using Histopaque®-1077. Blood is diluted 1:1 with Dulbecco's Phosphate Buffered Saline (DPBS) or Hank's Balanced Salts Solution (HBSS). The PBMC layer is collected and washed twice with DPBS or HBSS and resuspended at 4×10^6 cells/mL in RPMI complete. The PBMC suspension is added to 48 well flat bottom sterile tissue culture plates (Costar, Cambridge, Mass. or Becton Dickinson Labware, Lincoln Park, N.J.) containing an equal volume of RPMI complete media containing test compound.
The compounds are solubilized in dimethyl sulfoxide (DMSO). The DMSO concentration should not exceed a final concentration of 1% for addition to the culture wells. The compounds are generally tested at concentrations ranging from 30-0.014 μM.
The solution of test compound is added at 60 μM to the first well containing RPMI complete and serial 3 fold dilutions are made in the wells. The PBMC suspension is then added to the wells in an equal volume, bringing the test compound concentrations to the desired range (30-0.014 μM). The final concentration of PBMC suspension is 2×10^6 cells/mL. The plates are covered with sterile plastic lids, mixed gently and then incubated for 18 to 24 hours at 37° C. in a 5% carbon dioxide atmosphere.
Following incubation the plates are centrifuged for 10 minutes at 1000 rpm (˜200×g) at 4° C. The cell-free culture supernatant is removed with a sterile polypropylene pipet and transferred to sterile polypropylene tubes. Samples are maintained at −30 to −70° C. until analysis. The samples are analyzed for interferon (α) by ELISA and for tumor necrosis factor (α) by ELISA or IGEN Assay.
Interferon (α) concentration is determined by ELISA using a Human Multi-Species kit from PBL Biomedical Laboratories, New Brunswick, N.J. Results are expressed in pg/mL.
Tumor necrosis factor (α) (TNF) concentration is determined using ELISA kits available from Biosource International, Camarillo, Calif. Alternately, the TNF concentration can be determined by Origen® M-Series Immunoassay and read on an IGEN M-8 analyzer from IGEN International, Gaithersburg, Md. The immunoassay uses a human TNF capture and detection antibody pair from Biosource International, Camarillo, Calif. Results are expressed in pg/mL.
The table below lists the lowest concentration found to induce interferon and the lowest concentration found to induce tumor necrosis factor for each compound.

Where [1] appears, read: Homo sapiens, PBMC, lowest concentration found to induce interferon (α), ELISA, read-out: Lowest Effective Concentration (μM) Interferon.
Where [2] appears, read: lowest concentration found to induce tumor necrosis factor (α), ELISA or IGEN assay.
Where [3] appears, read: Homo sapiens, PBMC, lowest concentration found to induce tumor necrosis factor (α), ELISA or IGEN assay, read-out: Lowest Effective Concentration (μM) Tumor Necrosis Factor.
Setting [4] is: lowest concentration found to induce interferon (α), ELISA.

As to `CN(C)c1cccc(CCCOCCn2cnc3c(N)nc4ccccc4c32)c1` [Example 15, 1-(2-{3-[3-(Dimethylamino)phenyl]propoxy}ethyl)-1H-imidazo[4,5-c]quinolin-4-amine dihydrochloride], under setting [1], the minimal effective concentration came out at 0.12 µM. Under setting [2], the “Lowest Effective Concentration (μM) Tumor Necrosis Factor” value is “*”.

On to `CCCCc1nc2c(N)nc3c(c2n1CCOCc1cccc(C#N)c1)CCCC3` [Example 94], for which the minimal effective concentration by setting is: under setting [1], 0.01 µM; under setting [3], 3.33 µM.

In the case of `CC(COCc1ccccc1)n1cnc2c(N)nc3ccccc3c21` (centres unmarked) [Example 70], the minimal effective concentration under setting [1] is 0.37 µM. Moreover, the “Lowest Effective Concentration (μM) Tumor Necrosis Factor” value under setting [2] is given as “*”.

Take `COC(=O)c1ccc(COCC(C)n2cnc3c(N)nc4ccccc4c32)cc1` (centres unmarked) [Example 71]: the minimal effective concentration under setting [1] is 3.33 µM. The “Lowest Effective Concentration (μM) Tumor Necrosis Factor” value under setting [2] is “*”.

Turning to `CCOCc1nc2c(N)nc3ccccc3c2n1CCOCCCOCc1ccccc1` [Example 21, 1-{2-[3-(Benzyloxy)propoxy]ethyl}-2-(ethoxymethyl)-1H-imidazo[4,5-c]quinolin-4-amine], under setting [1], the minimal effective concentration amounted to 0.12 µM. For the same compound, the “Lowest Effective Concentration (μM) Tumor Necrosis Factor” value under setting [2] is “*”.

`CC(Cn1cnc2c(N)nc3ccccc3c21)Oc1ccc(C(C)(C)CC(C)(C)C)cc1` (centres unmarked) [Example 100]: the “Lowest Effective Concentration (μM) Interferon” value under setting [4] is “*”. Further, the “Lowest Effective Concentration (μM) Tumor Necrosis Factor” value under setting [2] is recorded as “*”.

Regarding `CC[C@@H](COCc1ccc(C#N)cc1)n1cnc2c(N)nc3ccccc3c21` [Example 143, 4-({[(2S)-2-(4-Amino-1H-imidazo[4,5-c]quinolin-1-yl)butyl]oxy}methyl)benzonitrile], the minimal effective concentration is 1.11 µM under setting [1] and 3.33 µM under setting [3].

Consider `N#Cc1ccc(COCCOCn2cnc3c(N)nc4ccccc4c32)cc1` [Example 87], for which, under setting [1], the minimal effective concentration was found to be 1.11 µM. For the same compound, the “Lowest Effective Concentration (μM) Tumor Necrosis Factor” value under setting [2] is reported as “*”.

For `CCOCc1nc2c(N)nc3ccccc3c2n1CCOCCCc1ccccc1` [Example 16, 2-(Ethoxymethyl)-1-[2-(3-phenylpropoxy)ethyl]-1H-imidazo[4,5-c]quinolin-4-amine Hydrochloride], the minimal effective concentration was 0.01 µM under setting [1] and 0.37 µM under setting [3].

Consider `N#Cc1cccc(COCCOCn2cnc3c(N)nc4ccccc4c32)c1` [Example 88], for which the minimal effective concentration is 0.37 µM under setting [1] and 30 µM under setting [3].

For `CC(C)C(COCc1ccc(Cl)c(Cl)c1)n1cnc2c(N)nc3ccccc3c21` (centres unmarked) [Example 62], under setting [3], the minimal effective concentration stood at 3.33 µM. Moreover, the “Lowest Effective Concentration (μM) Interferon” value under setting [4] is reported as “*”.

In the case of `CC(C)C(COCc1ccccc1)n1cnc2c(N)nc3ccccc3c21` (centres unmarked) [Example 59], the minimal effective concentration under setting [1] was 1.11 µM. In addition, the “Lowest Effective Concentration (μM) Tumor Necrosis Factor” value under setting [2] was “*”.

Regarding `Nc1nc2ccccc2c2c1ncn2CC(OCc1ccccc1)c1ccccc1` (centres unmarked) [Example 28], the minimal effective concentration under setting [1] came to 10 µM. The “Lowest Effective Concentration (μM) Tumor Necrosis Factor” value under setting [2] is reported as “*”.

Turning to `CC(Cn1cnc2c(N)nc3ccccc3c21)OCc1ccc(C(C)(C)C)cc1` (centres unmarked) [Example 67], the minimal effective concentration under setting [3] was 30 µM. Moreover, the “Lowest Effective Concentration (μM) Interferon” value under setting [4] is listed as “*”.

As to `CC(C)c1ccccc1C#CCOCCn1cnc2c(N)nc3ccccc3c21` [Example 7, 1-(2-{[3-(2-Isopropylphenyl)-2-propynyl]oxy}ethyl)-1H-imidazo[4,5-c]quinolin-4-amine Hydrochloride], the minimal effective concentration is, setting by setting: under setting [1], 1.11 µM; under setting [3], 0.37 µM.

Take `CCC(COCC(=O)OC)n1cnc2c(N)nc3ccccc3c21` (centres unmarked) [Example 43]: the minimal effective concentration under setting [1] was 0.37 µM. Also, the “Lowest Effective Concentration (μM) Tumor Necrosis Factor” value under setting [2] is “*”.

With `C[C@@H](COCc1ccc(C#N)cc1)Cn1cnc2c(N)nc3ccccc3c21` [Example 110], the minimal effective concentration under setting [1] was 3.33 µM. In addition, the “Lowest Effective Concentration (μM) Tumor Necrosis Factor” value under setting [2] was “*”.

With `Cc1ccc(COCCCCn2cnc3c(N)nc4ccccc4c32)cc1` [Example 77], the minimal effective concentration under setting [1] came to 0.12 µM. In addition, the “Lowest Effective Concentration (μM) Tumor Necrosis Factor” value under setting [2] is reported as “*”.

On to `Cc1nc2c(N)nc3ccccc3c2n1CCOCC#Cc1ccccc1` [Example 118, 2-Methyl-1-{2-[(3-phenylprop-2-ynyl)oxy]ethyl}-1H-imidazo[4,5-c]quinolin-4-amine], for which the minimal effective concentration by setting is: under setting [1], 0.01 µM; under setting [3], 0.04 µM.

As to `CC(Cn1cnc2c(N)nc3ccccc3c21)OCc1ccc(C(F)(F)F)cc1` (centres unmarked) [Example 68], under setting [1], the minimal effective concentration is 3.33 µM. The “Lowest Effective Concentration (μM) Tumor Necrosis Factor” value under setting [2] was “*”.

With `CCC(COc1ccccc1C#N)n1cnc2c(N)nc3ccccc3c21` (centres unmarked) [Example 102], the minimal effective concentration under setting [1] stood at 0.37 µM. The “Lowest Effective Concentration (μM) Tumor Necrosis Factor” value under setting [2] is on record as “*”.

Take `Cc1ccc([N+](=O)[O-])c(OC(C)Cn2cnc3c(N)nc4ccccc4c32)c1` (centres unmarked) [Example 56]: the minimal effective concentration runs as follows: under setting [1], 1.11 µM; under setting [3], 10 µM.

In the case of `CCC(COc1ccccc1)n1cnc2c(N)nc3ccccc3c21` (centres unmarked) [Example 106, 1-[(1-Phenoxymethyl)propyl]-1H-imidazo[4,5-c]quinolin-4-amine], the minimal effective concentration under setting [1] amounted to 0.37 µM. Besides, under setting [2], the “Lowest Effective Concentration (μM) Tumor Necrosis Factor” value is “*”.

For the compound `COC(=O)c1ccc(COCCn2cnc3c(N)nc4ccccc4c32)cc1` [Example 41], the minimal effective concentration by setting is: under setting [1], 1.11 µM; under setting [3], 3.33 µM.

With `CC(C)(Cn1cnc2c(N)nc3ccccc3c21)OCc1ccccc1Cl` [Example 38], the minimal effective concentration under setting [1] amounted to 10 µM. The “Lowest Effective Concentration (μM) Tumor Necrosis Factor” value under setting [2] is on record as “*”.

For the compound `Nc1nc2ccccc2c2c1ncn2CC(OCc1cccc(Cl)c1)c1ccccc1` (centres unmarked) [Example 30], the minimal effective concentration under setting [1] amounted to 3.33 µM. Further, under setting [2], the “Lowest Effective Concentration (μM) Tumor Necrosis Factor” value is recorded as “*”.

Consider `CCCCc1nc2c(N)nc3c(c2n1CCOCc1ccc(C#N)cc1)CCCC3` [Example 93], for which the minimal effective concentration runs as follows: under setting [1], 0.12 µM; under setting [3], 10 µM.

On to `Nc1nc2ccccc2c2c1ncn2CCOc1ccccc1` [Example 105, 1-(2-Phenoxyethyl)-1H-imidazo[4,5-c]quinolin-4-amine], for which the minimal effective concentration reads like this: under setting [1], 0.37 µM; under setting [3], 1.11 µM.

`CC[C@H](COCc1ccc(C#N)cc1)n1cnc2c(N)nc3ccccc3c21` [Example 142, 4-({[(2R)-2-(4-Amino-1H-imidazo[4,5-c]quinolin-1-yl)butyl]oxy}methyl)benzonitrile]: the minimal effective concentration by setting is: under setting [1], 0.04 µM; under setting [3], 0.04 µM.

`CCC(COCc1cccc(Cl)c1)n1cnc2c(N)nc3ccccc3c21` (centres unmarked) [Example 47]: the minimal effective concentration (lowest concentration found to induce interferon (α), ELISA, read-out: Lowest Effective Concentration (μM) Interferon) came to 0.12 µM. Besides, the “Lowest Effective Concentration (μM) Tumor Necrosis Factor” value under setting [2] is “*”.

On to `CCCCc1nc2c(N)nc3c(c2n1CCOCc1ccc(C(F)(F)F)cc1)CCCC3` [Example 91], for which the minimal effective concentration was found to be 0.37 µM under setting [1] and 10 µM under setting [3].

On to `Cc1ccc(COC(C)Cn2cnc3c(N)nc4ccccc4c32)cc1` (centres unmarked) [Example 50], for which, under setting [1], the minimal effective concentration is 3.33 µM. Moreover, under setting [2], the “Lowest Effective Concentration (μM) Tumor Necrosis Factor” value is given as “*”.

On to `CC(Cn1cnc2c(N)nc3ccccc3c21)Oc1ccccc1[N+](=O)[O-]` (centres unmarked) [Example 51], for which the minimal effective concentration under setting [1] amounted to 0.37 µM. Under setting [2], the “Lowest Effective Concentration (μM) Tumor Necrosis Factor” value is reported as “*”.

For the compound `Cc1ccc(COC(Cn2cnc3c(N)nc4ccccc4c32)c2ccccc2)cc1` (centres unmarked) [Example 31], the “Lowest Effective Concentration (μM) Interferon” value under setting [4] is given as “*”. Further, the “Lowest Effective Concentration (μM) Tumor Necrosis Factor” value under setting [2] is reported as “*”.
